How the values were obtained:
[1] = test system: CT26 cells; test: WST1 cell viability assay; assay type: cell-based, mice; settings: 24 h; for anti-tumor efficacy (cell viability), single use: C: 0 ~ 160 μM, R: 12.5 ~ 200 μM; for IC50: Mus musculus, WST1
Procedure: The mice colon cancer cell line, CT26, was provided by Johnpro Biotech (Taipei, Taiwan). The cells were maintained in ATCC-formulated RPMI-1640 Medium containing 10% heat-inactivated fetal bovine serum (FBS) and 1% antibiotic-antimycotic (GM) in a humidified incubator with 5% CO2 at 37 °C. […] The cell viability was determined through WST1 assay (Roche, Germany) after the 24-h treatment.

[2] = test system: Caspase-3; test: Western blot of Caspase-3 cleavage form; assay type: cell-based, mice; settings: CT26 cells, 3 h, single agents
Procedure: The CT26 cell lysates from the variety of the treatments were prepared using RIPA lysis buffer for immunoblotting of Cyclin D1 (Cell Signaling Technology, #92G2), Cyclin A (Santa Cruz Biotechnology, #sc-271,645), Hsp70 (Santa Cruz Biotechnology, #SC24), Caspase-3, and cleavage form of Caspase-3 (Cell Signaling Technology, #9662S). Western blot analysis was performed as previously reported.

IC50 [1] [µM]	SMILES	anti-tumor efficacy (cell viability), single use [1]	cleavage form of Caspase-3 [2]
26.8 ± 1.06	COc1cc(/C=C/C(=O)CC(=O)/C=C/c2ccc(O)c(OC)c2)ccc1O [Curcumin, curcumin]	dose-dependent	increased
88.8 ± 1.07	Oc1ccc(/C=C/c2cc(O)cc(O)c2)cc1 [Resveratrol, resveratrol]	dose-dependent	increased

Reference: PMC7324975 (BMC Cancer, 2020)
